What all share (format): biochemical
Experiment [1] deals with T1, human FLT3 (Homo sapiens, UniProt P36888).
T1 construct: a construct expressing the human FLT3 (564-993) with an amino terminal GST tag; host or cells: Sf9 insect cells (baculovirus)
T1 sequence (P36888 564-993): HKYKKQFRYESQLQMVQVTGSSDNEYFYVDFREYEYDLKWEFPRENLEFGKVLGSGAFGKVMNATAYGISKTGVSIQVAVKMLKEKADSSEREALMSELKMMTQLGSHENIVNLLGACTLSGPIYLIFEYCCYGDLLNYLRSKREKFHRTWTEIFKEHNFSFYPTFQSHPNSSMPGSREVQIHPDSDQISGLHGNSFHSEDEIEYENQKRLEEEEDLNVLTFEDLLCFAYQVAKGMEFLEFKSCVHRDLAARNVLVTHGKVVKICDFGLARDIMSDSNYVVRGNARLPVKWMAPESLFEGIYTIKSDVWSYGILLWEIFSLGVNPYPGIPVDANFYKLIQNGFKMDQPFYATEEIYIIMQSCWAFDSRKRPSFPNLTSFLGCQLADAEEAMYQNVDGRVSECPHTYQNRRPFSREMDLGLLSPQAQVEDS
Briefly: FLT3 kinase assay (DELFIA enzyme inhibition). Here is the method: A GST-kinase fusion protein of 70 KDa was produced using sf9 baculovirus expression system, with a construct expressing the human FLT3 (564-993) with an amino terminal GST tag. The protein was purified by one-step affinity chromatography using glutathione-agarose.
FLT3 enzyme activity is determined using a Dissociation Enhanced Lanthanide Fluorescent Immunoassay (DELFIA) with a peptide substrate derived from the Gastrin Precursor (Tyr 87) peptide […] with a core sequence: EAYGW.
The amount of phosphorylated peptide produced is detected by means of a phospho-Tyrosine specific Europium-labelled antibody using Time-Resolved Fluorescence at Excitation 360-35 nm and Emission 620-35 nm.
Assay reactions are set up in a 25 uL final volume on a 96 well plate. […] The reaction is allowed to proceed for 30 minutes at room temperature before stopping with 100 μL Stop solution comprising of 100 mM EDTA, 1×BSA blocker in TBS (Perbio) and 0.05% Surfact-Amps20 (Perbio).
The stopped reaction is transferred to a black 96-well Neutravidin-coated plate (Perbio) and incubated for 30 minutes to capture the biotinylated peptide substrate. After washing wells 3 times with 200 uL TBS/T buffer, Anti-Phospho-Tyr-100 antibody labelled with Eu—N1 (Perkin Elmer AD0159) is added to all wells for 60 minutes at room temperature. After a repeat washing step, DELFIA Enhancement solution (Perkin Elmer) is added to all wells for 5 minutes and the fluorescence measured on a plate reader Analyst HT (Molecular Devices).
The % inhibition of the activity is calculated and plotted in order to determine the concentration of test compound required to inhibit 50% of the enzyme activity (IC50).

Experiment [2] concerns the target T2, human FLT4 (Homo sapiens, UniProt P35916).
T2 construct: a construct expressing the human FLT4 (789-1207) with an amino terminal GST tag; host or cells: Sf9 insect cells (baculovirus)
The experiment can be described thus: FLT4 kinase assay (DELFIA enzyme inhibition). As to conditions: read-out: FLT4 IC50. The procedure, abridged: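 GST-tagged human FLT4 (789-1207) from Sf9 cells phosphorylates a biotinylated MET (Tyr1253)-derived peptide for 30 min at room temperature, stopped with EDTA. Phosphopeptide is captured on Neutravidin and detected with Eu-labelled anti-phosphotyrosine antibody by time-resolved fluorescence; IC50 from % inhibition curves.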

In experiment [3] the target is T3, human Aurora A (Homo sapiens, UniProt O14965).
T3 construct: Histidine tag (N); host or cells: Sf9 insect cells (baculovirus)
T3 sequence (O14965 1-403): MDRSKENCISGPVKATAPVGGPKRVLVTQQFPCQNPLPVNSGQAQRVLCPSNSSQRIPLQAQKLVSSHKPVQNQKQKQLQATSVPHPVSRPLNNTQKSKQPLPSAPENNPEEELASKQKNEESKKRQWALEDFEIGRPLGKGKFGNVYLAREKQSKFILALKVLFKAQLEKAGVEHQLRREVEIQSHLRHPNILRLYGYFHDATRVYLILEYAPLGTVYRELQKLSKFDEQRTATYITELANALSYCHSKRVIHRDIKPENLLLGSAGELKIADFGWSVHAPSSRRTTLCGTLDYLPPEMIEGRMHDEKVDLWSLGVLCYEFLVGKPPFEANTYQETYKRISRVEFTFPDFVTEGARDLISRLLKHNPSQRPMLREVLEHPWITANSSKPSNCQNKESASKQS
Briefly: Aurora A kinase assay (DELFIA enzyme inhibition). The following applies: read-out: Aurora A IC50. The procedure, abridged:
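DELFIA read-out (time-resolved Eu fluorescence, 620 nm emission) after Neutravidin capture of biotinylated peptide substrate and antibody detection. Reaction: Ni-agarose-purified Aurora A, 30 min at room temperature, stopped with 100 mM EDTA.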

SMILES strings stand for the structures. pIC50: −log10 of the molar value. Structures can show the parent of a compound that is named as a salt.

One may read the pIC50 as the IC50 on a negative log10 scale, so that one unit is a factor of ten.

T2 sequence (P35916 789-1207): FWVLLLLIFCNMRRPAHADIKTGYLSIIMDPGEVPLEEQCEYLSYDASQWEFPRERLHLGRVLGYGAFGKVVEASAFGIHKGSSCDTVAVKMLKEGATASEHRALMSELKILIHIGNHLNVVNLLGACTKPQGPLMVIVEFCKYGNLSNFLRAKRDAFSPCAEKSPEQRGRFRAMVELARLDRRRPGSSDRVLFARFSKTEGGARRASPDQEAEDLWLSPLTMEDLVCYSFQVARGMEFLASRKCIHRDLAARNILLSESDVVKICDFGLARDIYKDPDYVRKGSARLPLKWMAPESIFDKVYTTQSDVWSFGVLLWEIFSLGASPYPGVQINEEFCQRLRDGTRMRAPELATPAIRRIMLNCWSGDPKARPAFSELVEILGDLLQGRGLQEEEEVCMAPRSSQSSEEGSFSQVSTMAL

Take `NC(=O)c1nc(-c2c[nH]c3ccccc23)oc1-c1cccs1` [Example E-4, 2-(1H-indol-3-yl)-5-(thiophen-2-yl)oxazole-4-carboxamide]: the figures for the pIC50 in experiment [1], in experiment [2] and in experiment [3] were over 4.00, over 5.00 and over 4.00, respectively.
`NC(=O)c1nc(-c2c(F)cccc2F)oc1-c1cccnc1` [Example F-9, 2-(2,6-difluorophenyl)-5-(pyridin-3-yl)oxazole-4-carboxamideH]: the results for the pIC50 in experiment [1], in experiment [2] and in experiment [3] were over 4.00, over 5.00 and over 4.00, respectively.
On to `CN1CCN(Cc2ccc(-c3oc(-c4c(F)cccc4F)nc3C(N)=O)cc2)CC1` [Example F-10, 2-(2,6-difluorophenyl)-5-(4-((4-methylpiperazin-1-yl)methyl)phenyl)oxazole-4-carboxamide], for which the pIC50 in experiment [1] is over 4.00; in experiment [2], over 5.00; in experiment [3], over 5.00.
For the compound `CC(=O)N1CCN(Cc2ccc(-c3oc(-c4c(F)cccc4F)nc3C(N)=O)cc2)CC1` [Example F-11, 5-(4-((4-acetylpiperazin-1-yl)methyl)phenyl)-2-(2,6-difluorophenyl)oxazole-4-carboxamide], the pIC50 in experiment [1] was over 4.00; in experiment [2], over 5.00; in experiment [3], over 5.00.
On to `NC(=O)c1nc(-c2c(F)cccc2F)oc1-c1ccc(COCCN2CCOCC2)cc1` [Example F-12, 2-(2,6-difluorophenyl)-5-(4-((2-morpholinoethoxy)methyl)phenyl)oxazole-4-carboxamide], for which the pIC50 in experiment [1] was over 4.00; in experiment [2], over 5.00; in experiment [3], over 5.00.
In the case of `NC(=O)c1nc(-c2c(F)cccc2F)oc1-c1ccc(OCCN2CCCCC2)cc1` [Example F-14, 2-(2,6-difluorophenyl)-5-(4-(2-(piperidin-1-yl)ethoxy)phenyl)oxazole-4-carboxamide], the pIC50 in experiment [1], in experiment [2] and in experiment [3] was over 5.00 throughout.
In the case of `CN(C)CCOc1ccc(-c2oc(-c3c(F)cccc3F)nc2C(N)=O)cc1` [Example F-15, 2-(2,6-difluorophenyl)-5-(4-(2-(dimethylamino)ethoxy)phenyl)oxazole-4-carboxamide], the pIC50 in experiment [1], in experiment [2] and in experiment [3] was over 5.00 each time.
For the compound `NCc1ccc(-c2oc(-c3c(F)cccc3F)nc2C(N)=O)cc1` [Example F-16, 5-(4-(aminomethyl)phenyl)-2-(2,6-difluorophenyl)oxazole-4-carboxamide], the pIC50 in experiment [1] is over 4.00; in experiment [2] it was over 5.00; in experiment [3], over 5.00.
Take `NC(=O)c1nc(-c2c(F)cccc2F)oc1-c1ccc(N)cc1` [Example F-22, 5-(4-aminophenyl)-2-(2,6-difluorophenyl)oxazole-4-carboxamide]: the pIC50 in experiment [1], in experiment [2] and in experiment [3] was over 5.00 each time.
Turning to `NC(=O)c1nc(-c2c(F)cccc2Cl)oc1-c1ccc(OCCN2CCCCC2)cc1` [Example F-24, 2-(2-chloro-6-fluorophenyl)-5-(4-(2-(piperidin-1-yl)ethoxy)phenyl)oxazole-4-carboxamide], the pIC50 in experiment [1], in experiment [2] and in experiment [3] was over 5.00 in each case.
For the compound `NC(=O)c1nc(-c2c(Cl)cccc2Cl)oc1-c1ccc(OCCN2CCCCC2)cc1` [Example F-25, 2-(2,6-dichlorophenyl)-5-(4-(2-(piperidin-1-yl)ethoxy)phenyl)oxazole-4-carboxamide], the pIC50 in experiment [1], in experiment [2] and in experiment [3] was over 5.00 throughout.
On to `NC(=O)c1nc(-c2ccccc2F)oc1-c1ccc(OCCN2CCCCC2)cc1` [Example F-26, 2-(2-fluorophenyl)-5-(4-(2-(piperidin-1-yl)ethoxy)phenyl)oxazole-4-carboxamide], for which the pIC50 in experiment [1], in experiment [2] and in experiment [3] was over 5.00 throughout.
For `NC(=O)c1nc(-c2ccccc2F)oc1-c1ccc(OCCN2CCOCC2)cc1` [Example F-27, 2-(2-fluorophenyl)-5-(4-(2-morpholinoethoxy)phenyl)oxazole-4-carboxamide], the pIC50 in experiment [1], in experiment [2] and in experiment [3] was over 5.00 in each case.
Turning to `NC(=O)c1nc(-c2c(F)cccc2F)oc1-c1ccc(CN2CCNCC2)cc1` [Example G-1, 2-(2,6-difluorophenyl)-5-(4-(piperazin-1-ylmethyl)phenyl)oxazole-4-carboxamide], the pIC50 is over 4.00 in experiment [1], over 5.00 in experiment [2] and over 5.00 in experiment [3].
Turning to `NC(=O)c1nc(-c2c(F)cccc2F)oc1-c1ccc(N2CCNCC2)nc1` [Example G-2, 2-(2,6-difluorophenyl)-5-(6-(piperazin-1-yl)pyridin-3-yl)oxazole-4-carboxamide dihydrochloride], the pIC50 in experiment [1], in experiment [2] and in experiment [3] was over 5.00 in each case.
Consider `NC(=O)c1nc(-c2ccccc2F)oc1-c1ccc(N2CCNCC2)cc1` [Example G-4, 2-(2-fluorophenyl)-5-(4-(piperazin-1-yl)phenyl)oxazole-4-carboxamide], for which the pIC50 in experiment [1], in experiment [2] and in experiment [3] was over 5.00 each time.
Turning to `CN1CCN(c2ccc(-c3oc(-c4c(F)cccc4F)nc3C(N)=O)cc2)CC1` [Example H-1, 2-(2,6-difluorophenyl)-5-(4-(4-methylpiperazin-1-yl)phenyl)oxazole-4-carboxamide], the pIC50 in experiment [1], in experiment [2] and in experiment [3] was over 5.00 in each case.
As to `CN1CCN(c2ccc(-c3oc(-c4c(F)cccc4F)nc3C(N)=O)cn2)CC1` [Example H-2, 2-(2,6-difluorophenyl)-5-(6-(4-methylpiperazin-1-yl)pyridin-3-yl)oxazole-4-carboxamide], the pIC50 in experiment [1], in experiment [2] and in experiment [3] was over 5.00 each time.
Turning to `CC(=O)N1CCN(c2ccc(-c3oc(-c4c(F)cccc4F)nc3C(N)=O)cc2)CC1` [Example I-1, 5-(4-(4-acetylpiperazin-1-yl)phenyl)-2-(2,6-difluorophenyl)oxazole-4-carboxamide], the pIC50 in experiment [1], in experiment [2] and in experiment [3] was over 5.00 throughout.
On to `CC(=O)N1CCN(c2ccc(-c3oc(-c4c(F)cccc4F)nc3C(N)=O)cn2)CC1` [Example I-2, 5-(6-(4-acetylpiperazin-1-yl)pyridin-3-yl)-2-(2,6-difluorophenyl)oxazole-4-carboxamide], for which the pIC50 in experiment [1], in experiment [2] and in experiment [3] was over 5.00 throughout.
In the case of `CNC(=O)N1CCN(c2ccc(-c3oc(-c4c(F)cccc4F)nc3C(N)=O)cc2)CC1` [Example J-1, 4-(4-(4-carbamoyl-2-(2,6-difluorophenyl)oxazol-5-yl)phenyl)-N-methylpiperazine-1-carboxamide], the pIC50 in experiment [1], in experiment [2] and in experiment [3] was over 5.00 throughout.

Values taken from patent publication US9187465B2, “Oxazole tyrosine kinase inhibitors” (Sareum Limited, priority 2007, dated 2015).
